Measurements: patent publication US10563263B2, “Genetic polymorphisms associated with statin response and cardiovascular diseases, methods of detection and uses thereof” (CELERA CORPORATION, priority 2010, dated 2020)

System: CHD (death from CHD, nonfatal MI, or revascularization)
Assay: WOSCOPS: SNP by pravastatin treatment interaction, logistic regression (synergy index), CHD endpoint
Assay type: in vivo, human
Details: for OR (synergy index): WOSCOPS
Text: CARE was a secondary prevention trial and WOSCOPS was a primary prevention trial.
The CHD endpoint was defined in the analyses herein of CARE as a composite endpoint of fatal CHD, definite non-fatal MI, or revascularization, and was defined in the analyses herein of WOSCOPS as a composite endpoint of death from CHD, nonfatal MI, or revascularization. In both the CARE and WOSCOPS analyses herein, the CVD endpoint was defined as a composite endpoint of CHD or stroke. […] Revascularization, which can include percutaneous transluminal coronary angioplasty (PTCA), stent placement, and coronary artery bypass graft (CABG), are medical interventions that indicate the presence of CHD.
Cohort and case-only study designs were used to identify SNPs associated with response to statin treatment.
For each SNP, a logistic regression model having treatment status as the dependent variable and SNP as the independent predictor variable was performed, with terms for age, sex and race included in the model as covariates. The anti-log of the regression coefficient corresponding to the SNP is an estimate of the synergy index (SI) (Davis et al., “Imputing gene-treatment interactions when the genotype distribution is unknown using case-only and putative placebo analyses-a new method for the Genetics of Hypertension Associated Treatment (GenHAT) study”, Statistics in Medicine 23: (2004), pages 2413-2427). The SI is a ratio of odds ratios: for example in the CARE and WOSCOPS studies, the SI represents the factor by which the odds-ratio of statin treatment, compared with placebo, among major homozygous individuals is multiplied by in order to obtain the odds-ratio of treatment vs. placebo among heterozygous individuals; and multiplied by a second time to obtain the odds-ratio of treatment vs. placebo in minor homozygous individuals. The case-only study design results in a valid estimate of the SI under the assumption that genotype and treatment are independent in the population. In a randomized clinical trial, genotype and treatment are independent by design. The p-value for the regression coefficient corresponding to the SNP results from a test of the null hypothesis that the regression coefficient is equal to zero (SI is equal to one) and thus small p-values indicate the SI is unlikely equal to one and that the effect of treatment likely differs by genotype. […]

SMILES: CC[C@H](C)C(=O)O[C@H]1C[C@H](O)C=C2C=C[C@H](C)[C@H](CC[C@@H](O)C[C@@H](O)CC(=O)O)[C@H]21 [Pravastatin, pravastatin]
- WOSCOPS OR (rs4726711, source CaseOnly, model add, endpoint CHD): 0.62
- OR (synergy index) (rs4736802 allele G, DOM model, Imputed): 1.614
- OR (synergy index) (rs4760785 allele A, ADD model, Imputed): 0.7714
- OR (synergy index) (rs4760785 allele A, DOM model, Imputed): 0.5986
- OR (synergy index) (rs4760894 allele T, ADD model, Imputed): 0.7714
- OR (synergy index) (rs4760894 allele T, DOM model, Imputed): 0.5986
- OR (synergy index) (rs4760895 allele A, ADD model, Imputed): 0.7714
- OR (synergy index) (rs4760895 allele A, DOM model, Imputed): 0.5986
- OR (synergy index) (rs4764738 allele A, ADD model, Imputed): 1.555
- OR (synergy index) (rs4764974 allele T, ADD model, Imputed): 1.512
- OR (synergy index) (rs4798366 allele G, REC model, Imputed): 2.304
- WOSCOPS OR (rs4830819, source CaseOnly, model add, endpoint CHD): 0.66
- OR (synergy index) (rs4836502 allele T, DOM model, Imputed): 0.6887
- OR (synergy index) (rs4836507 allele C, DOM model, Imputed): 0.6884
- OR (synergy index) (rs4836744 allele A, ADD model, Imputed): 0.7704
- OR (synergy index) (rs4836744 allele A, DOM model, Imputed): 0.6637
- WOSCOPS OR (rs4836745, Source caseonly): 0.65
- OR (synergy index) (rs4848944 allele C, REC model, Genotyped): 0.464
- OR (synergy index) (rs4851529 allele A, DOM model, Imputed): 0.5663
- OR (synergy index) (rs4851531 allele T, DOM model, Imputed): 0.5588
- WOSCOPS OR (rs4870109, Source caseonly): 1.47
- OR (synergy index) (rs4878214 allele A, ADD model, Imputed): 0.7413
- OR (synergy index) (rs4880803 allele A, ADD model, Imputed): 0.7588
- OR (synergy index) (rs4896568 allele T, DOM model, Imputed): 0.5426
- WOSCOPS OR (rs4924215, source CaseOnly, model dom, endpoint CHD): 1.46
- OR (synergy index) (rs4938851 allele T, DOM model, Imputed): 1.301
- OR (synergy index) (rs4964416 allele C, DOM model, Imputed): 0.6799
- WOSCOPS OR (rs5750116, source cohort, model dom, endpoint CHD): 1.45
- OR (synergy index) (rs5756669 allele C, DOM model, Imputed): 1.541
- OR (synergy index) (rs6033138 allele C, ADD model, Imputed): 1.407
- OR (synergy index) (rs6033138 allele C, REC model, Imputed): 1.414
- OR (synergy index) (rs6040619 allele C, ADD model, Imputed): 1.488
- OR (synergy index) (rs6040619 allele C, REC model, Imputed): 1.688
- OR (synergy index) (rs6040625 allele T, ADD model, Imputed): 1.479
- OR (synergy index) (rs6040625 allele T, REC model, Imputed): 1.634
- OR (synergy index) (rs6040630 allele A, ADD model, Imputed): 1.42
- OR (synergy index) (rs6040630 allele A, REC model, Imputed): 1.462
- OR (synergy index) (rs6040633 allele A, ADD model, Imputed): 1.407
- WOSCOPS OR (rs6080603, source CaseOnly, model dom, endpoint CHD): 0.68
- WOSCOPS OR (rs6474228, Source caseonly): 1.83
- WOSCOPS OR (rs6491586, source CaseOnly, model dom, endpoint CHD): 1.78
- WOSCOPS OR (rs6505669, source CaseOnly, model dom, endpoint CHD): 1.37
- WOSCOPS OR (rs6585412, Source caseonly): 1.44
- WOSCOPS OR (rs6998016, Source caseonly): 9.63
- WOSCOPS OR (rs7018577, Source caseonly): 1.94
- WOSCOPS OR (rs7078016, Source caseonly): 1.44
- WOSCOPS OR (rs7193741, source cohort, model rec, endpoint CHD): 1.87
- WOSCOPS OR (rs7305949, Source caseonly): 1.74
- WOSCOPS OR (rs7332076, Source caseonly): 2.18
- WOSCOPS OR (rs7449527, Source caseonly): 1.71
- WOSCOPS OR (rs7521242, source CaseOnly, model add, endpoint CHD): 0.74
- WOSCOPS OR (rs7625204, source cohort, model add, endpoint CHD): 1.38
- WOSCOPS OR (rs7629632, source CaseOnly, model dom, endpoint CHD): 1.72
- WOSCOPS OR (rs7705993, source CaseOnly, model add, endpoint CHD): 1.44
- WOSCOPS OR (rs7742508, source cohort, model dom, endpoint CHD): 1.93
- WOSCOPS OR (rs7839562, Source caseonly): 1.63
- WOSCOPS OR (rs7916629, Source caseonly): 1.66
- WOSCOPS OR (rs9446187, source cohort, model dom, endpoint CHD): 2.05
- WOSCOPS OR (rs9859901, source CaseOnly, model add, endpoint CHD): 0.41
- WOSCOPS OR (rs10120126, source CaseOnly, model dom, endpoint CHD): 0.48
- WOSCOPS OR (rs10155047, source cohort, model add, endpoint CHD): 0.50
- WOSCOPS OR (rs10189905, source cohort, model add, endpoint CHD): 0.56
- WOSCOPS OR (rs10305439, source CaseOnly, model dom, endpoint CHD): 0.63
- WOSCOPS OR (rs10429616, source cohort, model rec, endpoint CHD): 1.54
- WOSCOPS OR (rs10497883, Source caseonly): 0.67
- WOSCOPS OR (rs10500736, source cohort, model dom, endpoint CHD): 0.52
- WOSCOPS OR (rs10774580, Source caseonly): 0.56
- WOSCOPS OR (rs10814422, source CaseOnly, model dom, endpoint CHD): 0.46
- WOSCOPS OR (rs10935907, source CaseOnly, model dom, endpoint CHD): 1.49
- WOSCOPS OR (rs10945874, Source caseonly): 1.24
- WOSCOPS OR (rs10973013, source CaseOnly, model dom, endpoint CHD): 0.48
- WOSCOPS OR (rs11138314, Source cohort): 0.59
- WOSCOPS OR (rs11148285, Source caseonly): 2.30
- WOSCOPS OR (rs11585647, Source caseonly): 0.67
- WOSCOPS OR (rs11721179, Source caseonly): 0.60
- WOSCOPS OR (rs12556591, source CaseOnly, model add, endpoint CHD): 0.66
- WOSCOPS OR (rs13126170, Source caseonly): 0.78
- WOSCOPS OR (rs13129010, Source caseonly): 1.90
- WOSCOPS OR (rs13137776, source CaseOnly, model add, endpoint CHD): 0.62
- WOSCOPS OR (rs13279522, source cohort, model add, endpoint CHD): 0.63
- WOSCOPS OR (rs13318232, source CaseOnly, model dom, endpoint CHD): 0.40
- WOSCOPS OR (rs13431868, source CaseOnly, model dom, endpoint CHD): 1.42
- WOSCOPS OR (rs16885715, Source caseonly): 1.58
- WOSCOPS OR (rs17002013, Source caseonly): 1.66
- WOSCOPS OR (rs17076974, source cohort, model add, endpoint CHD): 1.32
- WOSCOPS OR (rs17138705, source CaseOnly, model add, endpoint CHD): 0.70
- WOSCOPS OR (rs17688430, Source caseonly): 0.71
- WOSCOPS OR (rs17706237, source CaseOnly, model dom, endpoint CHD): 1.52
